Tests used:
[1] = target: cAMP and cAMP-inhibited cGMP 3',5'-cyclic phosphodiesterase 10A (Homo sapiens, UniProt Q9Y233); assay: In vitro assay with human PDE10A
[2] = target: Inhibitor of nuclear factor kappa-B kinase subunit alpha (Homo sapiens) (UniProt O15111); assay: conserved helix-loop-helix ubiquitous kinase Millipore kinase panel; conditions: Compound concentration 10.0 uM
[3] = target: Cyclin-dependent kinase 1/cyclin B (Homo sapiens) (UniProt P06493+P14635+Q8WWL7+O95067); assay: cyclin-dependent kinase 1 / clyclinB Millipore kinase panel; type: protein-complex assay; conditions: Compound concentration 10.0 uM
[4] = target: Cyclin-dependent kinase 5/CDK5 activator 1 (Homo sapiens) (UniProt Q00535+Q15078); assay: cyclin-dependent kinase 5 / p25 Millipore kinase panel; type: protein-complex assay; conditions: Compound concentration 10.0 uM
[5] = target: CDK7/Cyclin H/MNAT1 (Homo sapiens) (UniProt P51946+P50613+P51948); assay: Cyclin-dependent kinase 7 / cyclinH / MAT Millipore kinase panel; type: protein-complex assay; conditions: Compound concentration 10.0 uM
[6] = target: CDK9/cyclin T1 (Homo sapiens) (UniProt O60563+P50750); assay: cyclin-dependent kinase 9 / cyclinT1 Millipore kinase panel; type: protein-complex assay; conditions: Compound concentration 10.0 uM
[7] = target: Ephrin type-A receptor 5 (Homo sapiens) (UniProt P54756); assay: EPH receptor A5 Millipore kinase panel; conditions: Compound concentration 10.0 uM
[8] = target: Fibroblast growth factor receptor 1 (Homo sapiens) (UniProt P11362); assay: fibroblast growth factor receptor 1 Millipore kinase panel; conditions: Compound concentration 10.0 uM
[9] = target: Tyrosine-protein kinase HCK (Homo sapiens) (UniProt P08631); assay: hemopoietic cell kinase Millipore kinase panel; conditions: Compound concentration 10.0 uM
[10] = target: Insulin-like growth factor 1 receptor (Homo sapiens) (UniProt P08069); assay: insulin-like growth factor 1 receptor (activated) Millipore kinase panel; conditions: Compound concentration 10.0 uM
[11] = target: Myosin light chain kinase, smooth muscle (Homo sapiens) (UniProt Q15746); assay: myosin light chain kinase Millipore kinase panel; conditions: Compound concentration 10.0 uM
[12] = target: BDNF/NT-3 growth factors receptor (Homo sapiens) (UniProt Q16620); assay: neurotrophic tyrosine kinase, receptor, type 2 Millipore kinase panel; conditions: Compound concentration 10.0 uM
[13] = species on record: Homo sapiens; assay: p21 protein -activated kinase 2 Millipore kinase panel; conditions: Compound concentration 10.0 uM
[14] = target: Serine/threonine-protein kinase PLK2 (Homo sapiens) (UniProt Q9NYY3); assay: polo-like kinase 2 Millipore kinase panel; conditions: Compound concentration 10.0 uM
[15] = target: 5'-AMP-activated protein kinase catalytic subunit alpha-2 (Homo sapiens) (UniProt P54646); assay: protein kinase, AMP-activated, alpha 2 catalytic subunit Millipore kinase panel; conditions: Compound concentration 10.0 uM
[16] = target: Receptor-interacting serine/threonine-protein kinase 2 (Homo sapiens) (UniProt O43353); assay: receptor-interacting serine-threonine kinase 2 Millipore kinase panel; conditions: Compound concentration 10.0 uM
[17] = target: Ribosomal protein S6 kinase beta-1 (Homo sapiens) (UniProt P23443); assay: ribosomal protein S6 kinase, 70kDa, polypeptide 1 Millipore kinase panel; conditions: Compound concentration 10.0 uM
[18] = target: Ribosomal protein S6 kinase alpha-6 (Homo sapiens) (UniProt Q9UK32); assay: ribosomal protein S6 kinase, 90kDa, polypeptide 6 Millipore kinase panel; conditions: Compound concentration 10.0 uM
[19] = target: Serine/threonine-protein kinase 10 (Homo sapiens) (UniProt O94804); assay: serine/threonine kinase 10 Millipore kinase panel; conditions: Compound concentration 10.0 uM
[20] = target: Serine/threonine-protein kinase Sgk1 (Homo sapiens) (UniProt O00141); assay: serum/glucocorticoid regulated kinase 1 Millipore kinase panel; conditions: Compound concentration 10.0 uM
[21] = target: Testis-specific serine/threonine-protein kinase 1 (Homo sapiens) (UniProt Q9BXA7); assay: testis-specific serine kinase 1B Millipore kinase panel; conditions: Compound concentration 10.0 uM
[22] = target: Testis-specific serine/threonine-protein kinase 2 (Homo sapiens) (UniProt Q96PF2); assay: testis-specific serine kinase 2 Millipore kinase panel; conditions: Compound concentration 10.0 uM
[23] = target: Serine/threonine-protein kinase ULK2 (Homo sapiens) (UniProt Q8IYT8); assay: unc-51-like kinase 2 Millipore kinase panel; conditions: Compound concentration 10.0 uM
[24] = target: RAC-gamma serine/threonine-protein kinase (Homo sapiens) (UniProt Q9Y243); assay: v-akt murine thymoma viral oncogene homolog 3 Millipore kinase panel; conditions: Compound concentration 10.0 uM
[25] = target: Receptor tyrosine-protein kinase erbB-4 (Homo sapiens) (UniProt Q15303); assay: v-erb-a erythroblastic leukemia viral oncogene homolog 4 Millipore kinase panel; conditions: Compound concentration 10.0 uM
[26] = target: Proto-oncogene tyrosine-protein kinase Src (Homo sapiens) (UniProt P12931); assay: v-src sarcoma viral oncogene homolog Millipore kinase panel; conditions: Compound concentration 10.0 uM
[27] = target: Serine/threonine-protein kinase VRK2 (Homo sapiens) (UniProt Q86Y07); assay: vaccinia related kinase 2 Millipore kinase panel; conditions: Compound concentration 10.0 uM
[28] = target: Rod cGMP-specific 3',5'-cyclic phosphodiesterase subunit alpha (Homo sapiens, UniProt P16499); assay: hPDE6AB PDE scan
[29] = target: High affinity 3',5'-cyclic-AMP phosphodiesterase 7A (Homo sapiens, UniProt Q13946); assay: hPDE7A1 PDE scan
[30] = target: T1, Alpha-2B adrenergic receptor (Homo sapiens) (UniProt P18089); assay: hAb2 Cerep panel; conditions: Compound concentration 10.0 uM
T1 sequence (whole entry): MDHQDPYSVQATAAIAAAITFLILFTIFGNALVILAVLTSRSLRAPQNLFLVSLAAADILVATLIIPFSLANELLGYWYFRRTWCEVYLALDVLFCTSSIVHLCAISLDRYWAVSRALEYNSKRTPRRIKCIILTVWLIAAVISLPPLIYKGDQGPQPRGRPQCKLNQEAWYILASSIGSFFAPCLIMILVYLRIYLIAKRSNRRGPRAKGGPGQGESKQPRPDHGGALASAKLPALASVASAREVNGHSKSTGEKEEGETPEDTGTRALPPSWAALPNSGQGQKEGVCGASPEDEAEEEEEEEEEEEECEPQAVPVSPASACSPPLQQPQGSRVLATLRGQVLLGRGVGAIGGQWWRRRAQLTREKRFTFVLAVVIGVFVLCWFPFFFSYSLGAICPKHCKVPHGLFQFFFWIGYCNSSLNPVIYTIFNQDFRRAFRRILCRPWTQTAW

[31] = target: T2, Muscarinic acetylcholine receptor M4 (Homo sapiens) (UniProt P08173); assay: hM4 Cerep panel; conditions: Compound concentration 10.0 uM
T2 sequence (whole entry): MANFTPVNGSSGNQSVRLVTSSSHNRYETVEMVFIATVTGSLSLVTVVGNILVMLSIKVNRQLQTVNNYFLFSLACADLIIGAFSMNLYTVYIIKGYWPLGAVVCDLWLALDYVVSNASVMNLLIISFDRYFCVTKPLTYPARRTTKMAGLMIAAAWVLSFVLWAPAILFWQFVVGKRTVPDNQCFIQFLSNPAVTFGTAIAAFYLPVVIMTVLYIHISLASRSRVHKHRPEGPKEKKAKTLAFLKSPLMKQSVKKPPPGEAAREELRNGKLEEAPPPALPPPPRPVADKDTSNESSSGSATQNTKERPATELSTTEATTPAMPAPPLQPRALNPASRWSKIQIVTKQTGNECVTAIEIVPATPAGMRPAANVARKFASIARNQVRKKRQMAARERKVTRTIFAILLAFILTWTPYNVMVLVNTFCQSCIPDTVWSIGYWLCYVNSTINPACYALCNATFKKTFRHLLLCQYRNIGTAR

[32] = target: Glutamate NMDA receptor (Rattus norvegicus) (UniProt P35439+Q00959+Q00960+Q00961+Q62645+Q8VHN2+Q9R1M7); assay: rPCP Cerep panel; type: protein-complex assay; conditions: Compound concentration 10.0 uM
[33] = target: Vasopressin V1a receptor (Homo sapiens) (UniProt P37288); assay: hV1a Cerep panel; conditions: Compound concentration 10.0 uM
[34] = species on record: Rattus norvegicus; assay: rCL channel Cerep panel; conditions: Compound concentration 10.0 uM

Sequence of High affinity 3',5'-cyclic-AMP phosphodiesterase 7A (Q13946 whole entry): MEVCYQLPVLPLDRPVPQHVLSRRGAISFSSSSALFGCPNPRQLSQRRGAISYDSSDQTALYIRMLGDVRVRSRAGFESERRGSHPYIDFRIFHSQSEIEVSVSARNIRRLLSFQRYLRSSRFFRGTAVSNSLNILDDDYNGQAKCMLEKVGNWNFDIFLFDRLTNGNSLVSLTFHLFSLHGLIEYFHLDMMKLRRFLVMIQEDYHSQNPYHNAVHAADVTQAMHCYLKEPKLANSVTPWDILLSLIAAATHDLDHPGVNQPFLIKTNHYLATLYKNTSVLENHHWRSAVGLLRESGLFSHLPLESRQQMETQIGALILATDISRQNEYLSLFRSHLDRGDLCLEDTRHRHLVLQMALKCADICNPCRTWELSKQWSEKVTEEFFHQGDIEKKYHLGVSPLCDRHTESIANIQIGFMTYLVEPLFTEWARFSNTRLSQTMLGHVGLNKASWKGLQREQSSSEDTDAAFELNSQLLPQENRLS
Sequence of BDNF/NT-3 growth factors receptor (Homo sapiens) (Q16620 32-822 limits assumed): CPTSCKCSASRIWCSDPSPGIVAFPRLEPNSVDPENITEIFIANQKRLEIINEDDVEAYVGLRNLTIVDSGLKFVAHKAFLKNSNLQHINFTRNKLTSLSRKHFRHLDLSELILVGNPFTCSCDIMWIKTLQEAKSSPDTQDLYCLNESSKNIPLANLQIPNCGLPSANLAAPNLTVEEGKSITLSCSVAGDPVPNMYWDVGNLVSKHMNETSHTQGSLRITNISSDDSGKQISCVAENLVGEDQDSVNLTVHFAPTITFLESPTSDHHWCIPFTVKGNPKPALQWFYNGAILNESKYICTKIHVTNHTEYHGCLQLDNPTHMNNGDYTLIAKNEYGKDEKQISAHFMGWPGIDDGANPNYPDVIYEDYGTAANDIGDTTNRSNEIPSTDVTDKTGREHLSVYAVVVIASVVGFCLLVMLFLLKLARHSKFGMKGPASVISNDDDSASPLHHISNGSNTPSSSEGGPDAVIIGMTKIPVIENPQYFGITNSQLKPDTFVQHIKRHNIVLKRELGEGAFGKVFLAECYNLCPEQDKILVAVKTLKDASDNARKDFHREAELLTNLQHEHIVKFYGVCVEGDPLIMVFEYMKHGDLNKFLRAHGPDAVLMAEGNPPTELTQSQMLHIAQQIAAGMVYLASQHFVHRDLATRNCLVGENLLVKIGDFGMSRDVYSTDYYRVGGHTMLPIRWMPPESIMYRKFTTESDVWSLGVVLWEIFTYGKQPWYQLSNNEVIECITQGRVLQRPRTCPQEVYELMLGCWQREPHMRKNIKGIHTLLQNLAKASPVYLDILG
Sequence of 5'-AMP-activated protein kinase catalytic subunit alpha-2 (Homo sapiens) (P54646 whole entry, looked up): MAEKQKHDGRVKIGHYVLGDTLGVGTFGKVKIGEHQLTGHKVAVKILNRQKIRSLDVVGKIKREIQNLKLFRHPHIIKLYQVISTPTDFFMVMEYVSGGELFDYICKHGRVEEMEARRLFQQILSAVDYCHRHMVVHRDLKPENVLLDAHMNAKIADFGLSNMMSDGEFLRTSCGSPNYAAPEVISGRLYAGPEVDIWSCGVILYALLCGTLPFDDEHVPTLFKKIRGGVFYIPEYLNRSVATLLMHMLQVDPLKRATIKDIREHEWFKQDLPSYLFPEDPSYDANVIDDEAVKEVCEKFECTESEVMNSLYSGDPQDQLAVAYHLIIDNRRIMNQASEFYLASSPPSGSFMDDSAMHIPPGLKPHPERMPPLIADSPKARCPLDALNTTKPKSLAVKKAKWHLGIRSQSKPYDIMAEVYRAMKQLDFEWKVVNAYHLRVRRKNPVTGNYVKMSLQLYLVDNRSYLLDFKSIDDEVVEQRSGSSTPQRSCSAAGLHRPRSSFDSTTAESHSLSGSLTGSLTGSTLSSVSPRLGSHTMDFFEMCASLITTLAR
Sequence of Serine/threonine-protein kinase Sgk1 (Homo sapiens) (O00141 whole entry): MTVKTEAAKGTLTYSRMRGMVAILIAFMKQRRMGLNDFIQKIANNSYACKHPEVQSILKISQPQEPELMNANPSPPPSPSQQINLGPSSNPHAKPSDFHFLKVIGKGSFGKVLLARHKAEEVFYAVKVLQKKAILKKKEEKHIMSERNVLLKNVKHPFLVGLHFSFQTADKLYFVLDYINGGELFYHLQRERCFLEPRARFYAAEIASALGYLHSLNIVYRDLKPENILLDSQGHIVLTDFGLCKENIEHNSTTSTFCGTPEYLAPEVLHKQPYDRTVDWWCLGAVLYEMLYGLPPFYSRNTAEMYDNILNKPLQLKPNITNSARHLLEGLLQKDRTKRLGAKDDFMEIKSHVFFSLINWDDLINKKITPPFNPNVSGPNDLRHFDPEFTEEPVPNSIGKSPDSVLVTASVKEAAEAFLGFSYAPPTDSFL
Sequence of Ribosomal protein S6 kinase alpha-6 (Homo sapiens) (Q9UK32 whole entry): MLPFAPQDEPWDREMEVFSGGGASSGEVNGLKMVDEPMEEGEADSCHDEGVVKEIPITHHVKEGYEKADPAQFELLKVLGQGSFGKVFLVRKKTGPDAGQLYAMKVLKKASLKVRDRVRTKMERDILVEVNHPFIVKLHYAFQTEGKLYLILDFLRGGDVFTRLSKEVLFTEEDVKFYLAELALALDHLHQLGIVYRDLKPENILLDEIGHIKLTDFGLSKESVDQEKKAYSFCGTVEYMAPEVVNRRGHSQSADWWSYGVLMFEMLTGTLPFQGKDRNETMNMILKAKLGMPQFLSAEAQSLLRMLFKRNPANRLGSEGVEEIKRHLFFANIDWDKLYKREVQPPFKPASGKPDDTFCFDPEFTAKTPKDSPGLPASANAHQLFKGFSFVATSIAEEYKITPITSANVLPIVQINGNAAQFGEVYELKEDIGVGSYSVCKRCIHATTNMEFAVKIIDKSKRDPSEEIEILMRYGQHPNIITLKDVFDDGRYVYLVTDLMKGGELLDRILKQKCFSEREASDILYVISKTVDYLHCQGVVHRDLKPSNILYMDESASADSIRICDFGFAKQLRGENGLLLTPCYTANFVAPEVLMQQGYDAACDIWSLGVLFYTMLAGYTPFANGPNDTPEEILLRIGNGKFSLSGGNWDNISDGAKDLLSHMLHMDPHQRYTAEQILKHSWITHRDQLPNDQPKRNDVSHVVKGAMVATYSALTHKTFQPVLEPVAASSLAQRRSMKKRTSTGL
Sequence of Vasopressin V1a receptor (Homo sapiens) (P37288 whole entry, looked up): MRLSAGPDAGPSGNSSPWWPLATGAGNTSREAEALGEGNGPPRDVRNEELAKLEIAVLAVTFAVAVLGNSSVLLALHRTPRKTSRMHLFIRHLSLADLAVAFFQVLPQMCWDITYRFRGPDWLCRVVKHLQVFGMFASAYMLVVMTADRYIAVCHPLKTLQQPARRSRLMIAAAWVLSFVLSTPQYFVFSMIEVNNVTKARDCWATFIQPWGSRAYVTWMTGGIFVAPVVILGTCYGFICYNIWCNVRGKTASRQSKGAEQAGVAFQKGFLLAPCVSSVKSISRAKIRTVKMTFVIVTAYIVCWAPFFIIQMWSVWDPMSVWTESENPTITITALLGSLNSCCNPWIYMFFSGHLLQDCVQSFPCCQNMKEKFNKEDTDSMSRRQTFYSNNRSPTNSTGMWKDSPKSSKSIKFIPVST
Sequence of cAMP and cAMP-inhibited cGMP 3',5'-cyclic phosphodiesterase 10A (Q9Y233 whole entry): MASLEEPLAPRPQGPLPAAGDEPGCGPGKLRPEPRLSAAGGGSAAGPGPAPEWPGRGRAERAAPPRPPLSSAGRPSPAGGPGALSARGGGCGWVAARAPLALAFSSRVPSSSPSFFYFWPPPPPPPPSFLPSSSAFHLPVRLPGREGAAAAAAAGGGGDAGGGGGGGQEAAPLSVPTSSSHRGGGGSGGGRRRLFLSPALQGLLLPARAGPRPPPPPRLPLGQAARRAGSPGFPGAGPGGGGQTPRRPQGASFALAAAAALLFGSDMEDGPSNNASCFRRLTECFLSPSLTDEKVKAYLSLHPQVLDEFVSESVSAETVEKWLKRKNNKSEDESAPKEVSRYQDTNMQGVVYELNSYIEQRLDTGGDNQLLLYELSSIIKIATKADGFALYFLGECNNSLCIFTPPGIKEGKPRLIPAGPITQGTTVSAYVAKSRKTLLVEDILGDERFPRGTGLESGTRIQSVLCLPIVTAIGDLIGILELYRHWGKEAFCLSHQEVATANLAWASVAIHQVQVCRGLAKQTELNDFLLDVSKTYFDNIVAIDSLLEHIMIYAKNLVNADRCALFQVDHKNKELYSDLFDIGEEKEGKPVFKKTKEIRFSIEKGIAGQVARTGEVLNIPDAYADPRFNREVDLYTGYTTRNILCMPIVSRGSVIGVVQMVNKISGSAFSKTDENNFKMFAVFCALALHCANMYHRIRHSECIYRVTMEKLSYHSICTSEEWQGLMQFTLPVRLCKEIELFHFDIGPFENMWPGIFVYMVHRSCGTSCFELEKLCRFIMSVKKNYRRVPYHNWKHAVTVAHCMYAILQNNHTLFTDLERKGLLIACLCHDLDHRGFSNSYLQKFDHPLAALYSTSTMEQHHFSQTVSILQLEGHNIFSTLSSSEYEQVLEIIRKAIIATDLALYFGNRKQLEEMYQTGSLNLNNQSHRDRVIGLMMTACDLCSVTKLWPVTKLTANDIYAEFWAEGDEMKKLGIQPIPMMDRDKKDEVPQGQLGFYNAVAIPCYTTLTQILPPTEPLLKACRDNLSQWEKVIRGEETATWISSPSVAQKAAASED
Sequence of Proto-oncogene tyrosine-protein kinase Src (Homo sapiens) (P12931 2-536 limits assumed): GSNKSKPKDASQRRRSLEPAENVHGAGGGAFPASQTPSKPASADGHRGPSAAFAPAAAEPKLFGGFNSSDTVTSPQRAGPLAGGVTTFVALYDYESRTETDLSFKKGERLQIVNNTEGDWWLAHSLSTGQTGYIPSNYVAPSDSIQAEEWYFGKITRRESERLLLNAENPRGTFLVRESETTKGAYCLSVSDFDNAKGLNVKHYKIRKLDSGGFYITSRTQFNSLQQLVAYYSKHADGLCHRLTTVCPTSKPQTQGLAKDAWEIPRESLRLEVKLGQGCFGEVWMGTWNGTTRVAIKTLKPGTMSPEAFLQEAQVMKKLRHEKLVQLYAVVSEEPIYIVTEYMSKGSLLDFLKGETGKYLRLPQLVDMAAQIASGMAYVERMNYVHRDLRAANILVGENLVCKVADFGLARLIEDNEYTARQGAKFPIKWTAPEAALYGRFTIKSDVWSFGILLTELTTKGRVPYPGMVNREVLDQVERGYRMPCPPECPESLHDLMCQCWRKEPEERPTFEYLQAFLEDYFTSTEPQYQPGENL

c1ccc(C2CCN(c3cnc4c(N5CCOCC5)nccn34)CC2)cc1
IC50 [1]: > 10 µM (not active)

COCCc1ccc(-c2c(C)nc3c(N4CCOCC4)ccnn23)cn1 [JNJ-42396302]
inhibition [2]: -3% | inhibition [3]: 5% | inhibition [4]: 0% | inhibition [5]: 1% | inhibition [6]: -1% | inhibition [7]: -9% | inhibition [8]: 8% | inhibition [9]: -2% | inhibition [10]: 3% | inhibition [11]: 2% | inhibition [12]: -5% | inhibition [13]: -3% | inhibition [14]: -7% | inhibition [15]: 2% | inhibition [16]: -6% | inhibition [17]: -7% | inhibition [18]: -10% | inhibition [19]: 0% | inhibition [20]: -3% | inhibition [21]: 2% | inhibition [22]: 1% | inhibition [23]: 6% | inhibition [24]: 24% | inhibition [25]: 9% | inhibition [26]: -5% | inhibition [27]: -4% | Ki [28]: 85 µM | Ki [29]: 23 µM | effect [30]: -4.45% | effect [31]: -3.05% | effect [32]: -3.5% | effect [33]: 8.9% | effect [34]: -12.3%
